Results on 3 molecules are retold here after patent US20240252469A1, “Carnosine Analogs for Use in the Treatment of Metabolic Disorders” (priority 2021, published 2024).

Data set [1] has as its system C2C12 skeletal muscle cells. Kind of data set: Toxicity testing of carnosine esters (Calcein AM cell viability). The class given is cell-based. Particulars: 100 μM ester in GLT RPMI-1640 medium, 5 days culture, versus control medium. As for the experimental part:
C2C12 muscle cell myotubes were cultured for 5 days in the following four culture media: a control RPMI-1640 medium; glucolipotoxic (GLT) RPMI-1640 medium (28 mM glucose, 200 μM palmitic acid and 200 μM oleic acid) supplemented with 100 μM of L-carnosine methyl ester; GLT RPMI-1640 medium supplemented with 100 μM of L-carnosine ethyl ester; and GLT RPMI-1640 medium supplemented with 100 μM of L-carnosine iso-propyl ester. Following culture, media were aspirated and cells washed 3 times in Krebs-Ringer buffer (KRB). A final concentration of 5 μM Calcein AM Cell Viability Dye (ThermoFischer) in KRB was loaded for 1 h before washing again with KRB. Cell viability was measured via fluorescence, with excitation and emission at 490 nm and 520 nm, respectively.

Data set [2] relates to C2C12 skeletal muscle cells. Kind of data set: Reactive species scavenging ability (DCFDA fluorescence). The class given is cell-based. Particulars: 100 μM ester for 1 h after 5 days culture in GLT RPMI-1640 media. How it is done: C2C12 muscle cell myotubes were cultured for 5 days in standard RPMI-1640 tissue culture media or GLT RPMI-1640 media. Corresponding media were then replaced and supplemented independently with 100 μM of a carnosine ester (L-carnosine methyl ester, L-carnosine ethyl ester, and L-carnosine iso-propyl ester investigated) for 1 h. Non-supplemented standard and GLT RPMI-1640 media were also retained as controls. Cells were thereafter washed 3 times in KRB and 20 μM 2′,7′-dichlorofluorescein diacetate (DCFDA), a cell permeant fluorogenic dye that measures hydroxyl, peroxyl and other ROS, was loaded for 1 h. Reactive species detection was measured via fluorescence, with excitation at 495 nm and emission at 530 nm.

The next data set concerns INS-1 pancreatic β-cells. Kind of data set: Insulin secretion from INS-1 pancreatic β-cells (ELISA, normalised to cellular protein). It counts as cell-based. To be noted: 100 μM ester in GLT RPMI-1640 medium for 5 days; 2 h secretagogue cocktail stimulation. As for the experimental part:
INS-1 pancreatic B-cells were cultured for 5 days in standard RPMI-1640 tissue culture media or GLT RPMI-1640 media. The media were either used without further supplementation (used as controls) or were independently supplemented with either 10 mM of L-carnosine or with 100 μM of a carnosine ester (L-carnosine methyl ester, L-carnosine ethyl ester, and L-carnosine iso-propyl ester investigated). INS-1 cells were then treated with KRB or KRB supplemented with secretagogue cocktail (13.5 mM glucose, 1 μM phorbol 12-myristate 13-acetate, 1 mM isobutyl-methylxanthine, 1 mM tolbutamide, 10 mM leucine, 10 mM glutamine) as a stimulant of insulin secretion for 2 h. Insulin secretion was determined by ELISA assay, with data normalised to cellular protein content.
For orientation: An ELISA detects its analyte on a solid surface through an enzyme-linked reagent.

Data set [3] relates to High fat-fed spontaneously diabetic mice. Description: Glucose tolerance test in an in vivo model of type-2 diabetes. Particulars: 45 mg/kg body weight/day in diet. How it is done:
High fat-fed spontaneously diabetic mice were used as an animal model of type-2 diabetes. A glucose tolerance test was performed on three sets of mice, wherein the mice were initially fasted for 6 h. A […] glucose solution was then administered to the three sets of mice in their drinking water and their blood glucose concentrations (mmol/L) monitored over a period of 2 h. The following three sets of mice were used in the study: • Non-diabetic, non-high fat-fed mice. • Spontaneously diabetic high fat-fed mice. • Spontaneously diabetic high fat-fed mice whose diet also included 45 mg/kg body weight/day of L-carnosine iso-propyl ester.
Spontaneously diabetic high fat-fed mice were defined as mice which had been fed the following high fat diet from Research Diets: (60% fat; D12492). Non-diabetic, non-high fat-fed mice were used as a control and were fed the following low fat diet from Research Diets: (10% fat, D12450B). The body weights of the mice on the two different diets were measured throughout.

Consider `COC(=O)[C@H](Cc1cnc[nH]1)NC(=O)CCN` [L-carnosine methyl ester], for which the cell viability entry in data set [1] was “non-toxic”. In addition, the “intracellular reactive species (GLT-associated reactive species levels)” value (shortened to “intracellular reactive species”) in data set [2] is recorded as “return to control values”. Moreover, in the data set with INS-1 pancreatic β-cells, the “insulin secretion in cells exposed to glucolipotoxicity (GLT)” value (from here on “insulin secretion in cells exposed”) was “reverse glucolipotoxic inhibition of insulin secretion”.

With `CC(C)OC(=O)[C@H](Cc1cnc[nH]1)NC(=O)CCN` [L-carnosine iso-propyl ester], the cell viability result in data set [1] is “non-toxic”. Moreover, in data set [3] (high fat-fed mice), the “toxic effects on the animals” value is reported as “no toxic effects”. In addition, the glucose tolerance entry in data set [3] (spontaneously diabetic high fat-fed mice, 6 h fast) is reported as “significantly improved glucose tolerance”. The “blood glucose concentrations at the end of the study (2 h)” value in data set [3] (versus high fat-fed mice only administered the high fat diet) is “significantly lower”. Besides, in data set [2], the “intracellular reactive species” value is recorded as “return to control values”. In the data set on INS-1 pancreatic β-cells, the “insulin secretion in cells exposed” value is “reverse glucolipotoxic inhibition of insulin secretion”.

`CCOC(=O)[C@H](Cc1cnc[nH]1)NC(=O)CCN` [L-carnosine ethyl ester]: in data set [1], the cell viability result is reported as “non-toxic”. Further, the “intracellular reactive species” value in data set [2] is “return to control values”. Further, the “insulin secretion in cells exposed” value in the data set with INS-1 pancreatic β-cells is listed as “reverse glucolipotoxic inhibition of insulin secretion”.
